Like-named read-outs stand apart in the source and are kept apart here.
Tests used:
[1] = Psilocybin and psilocin plasma pharmacokinetics after s.c. psilocybin; type: in vivo, rats; conditions: for Cmax / concentration at 0.25 h / concentration at 0.5 h / concentration at 0.75 h / concentration at 1 h / concentration at 2 h / concentration at 4 h / concentration at 6 h / Tmax / AUC(0-inf) / AUC(0-t) / half-life / MRT inf: rat, rats; for Cmax / concentration at 0.25 h / concentration at 0.5 h / concentration at 0.75 h / concentration at 1 h / concentration at 2 h / concentration at 4 h / concentration at 6 h: plasma; for AUC(0-inf): read-out: AUC0-inf, Mean; for AUC(0-t): read-out: AUC0-tlast, Mean; for half-life: read-out: Apparent t1/2, Mean (converted); for MRT inf: read-out: MRT0-inf, Mean
Experimental: Psilocybin doses of 0.05, 0.1, 1, 10 mg/kg were used to evaluate psilocybin and psilocin PK in rats. For the doses of psilocybin that positively effect behaviors in the low performers in the PR and 5CSRTT, e.g., 0.05-0.1 mg/kg, the corresponding Cm. of psilocin was ˜7±2 ng/ml at 30 minutes for 0.05 mg/kg, and at a dose of 0.1 mg/kg, the Cm. of psilocin was determined to be ˜12±3 ng/ml at 30 minutes (FIG. 5).
Details of the plasma concentration studies are shown in Tables 1-8 (psilocybin) and 9-16 (psilocin). Values in italics are below the lower level of quantitation (BLQ, <1 ng/mL) but were included in calculations. Values in bold and underlined are considered to be outliers and were omitted from calculations. Measured dosing solution concentrations were 0.0460, 0.0967, 0.948 and 9.65 mg/mL for 0.05, 0.1, 1 and 10 […].

[2] = Minipump infusion of psilocybin over 12 days: plasma/blood exposure; type: in vivo, rats
Experimental: A dose of psilocybin, which is free from perceptual and behavioral side effects, was dosed in rats (N=24) continuously over a period of 12 days using an Alzet minipump implanted in rats of approximately 380-390 g body weight. The pump was primed to deliver psilocybin at 5 mg/kg/day pump concentration. The target plasma concentration was 10 ng/ml psilocin with actual plasma concentration 9.3+1.3 ng/ml over the 12 day study period.
Blood was collected from rats on days 4, 8 and 12 to measure levels of psilocybin and psilocin in Group B rats. Blood was collected via saphenous bleed at a standard timepoint which will not interfere with 5-choice testing. Psilocin blood levels were in the range of 8-10 ng/ml over days 4-12, while psilocybin blood levels were in the range of 2-5 ng/ml over days 4-12 (FIG. 7A), corresponding to 10 ng/mL psilocin. […] The present observations recorded for psilocybin/psilocin are occurring at exposure levels of psilocin ˜10 ng/ml (e.g., FIG. 5), likely resulting in a low level of CNS 5-HT2A receptor occupancy, and which is insufficient to elicit cardinal signs of 5-HT2A receptor activation such as WDS/BMC in rats (e.g., FIG. 1B).

[3] = subcutaneous, after psilocybin 0.05 mg/kg s.c.
[4] = subcutaneous, after psilocybin 0.1 mg/kg s.c.
[5] = subcutaneous, after psilocybin 1 mg/kg s.c.
[6] = subcutaneous, after psilocybin 10 mg/kg s.c.
[7] = sc, psilocin in plasma after psilocybin 0.05 mg/kg s.c.
[8] = sc, psilocin in plasma after psilocybin 0.1 mg/kg s.c.
[9] = sc, psilocin in plasma after psilocybin 1 mg/kg s.c.
[10] = sc, psilocin in plasma after psilocybin 10 mg/kg s.c.

CN(C)CCc1c[nH]c2cccc(O)c12 [psilocin, 4-hydroxy-N,N-dimethyltryptamine]
Plasma [psilocin] ([1]; Regimen 1, 0.05-0.1 mg/kg acute, increase in breakpoint under PR schedule (low performer subgroup)): ~5 to 12 ng/mL
Plasma [psilocin] ([1]; Regimen 2, 0.05-0.1 mg/kg acute, improvement in attention and response speed in 5-choice test (low performer subgroup)): ~5 to 12 ng/mL
Plasma [psilocin] ([1]; Regimen 3, 0.05-0.1 mg/kg acute, increase in PREM/PSV response in 10 s ITI 5-choice test (low impulsive subgroup)): ~5 to 12 ng/mL
Plasma [psilocin] ([1]; Regimen 5, ≥0.3 mg/kg acute, induction of overt 5-HT2A behaviors of WDS/BMC): ≥25 ng/mL
Cmax ([1]; sc, 0.05 mg/kg, psilocin in plasma after psilocybin 0.05 mg/kg s.c., read-out: Cmax, Mean): 0.00714 µg/mL
Cmax ([1]; sc, 0.05 mg/kg, psilocybin 0.05 mg/kg, after 30 mins, read-out: Cmax psilocin): ~0.006 µg/mL
Cmax ([1]; sc, 0.1 mg/kg, psilocin in plasma after psilocybin 0.1 mg/kg s.c., read-out: Cmax, Mean): 0.0117 µg/mL
Cmax ([1]; sc, 1 mg/kg, psilocin in plasma after psilocybin 1 mg/kg s.c., read-out: Cmax, Mean): 0.0833 µg/mL
Cmax ([1]; sc, 10 mg/kg, psilocin in plasma after psilocybin 10 mg/kg s.c., read-out: Cmax, Mean): 1.11 µg/mL
Cmax ([1]; subcutaneous, 0.05 mg/kg, psilocybin 0.05 mg/kg, after 30 mins, read-out: Cmax psilocin): ~0.007 µg/mL
Cmax ([1]; subcutaneous, 0.1 mg/kg, psilocybin 0.1 mg/kg, after 30 mins, read-out: Cmax psilocin): ~0.012 µg/mL
Cmax ([1]; subcutaneous, 1 mg/kg, psilocybin 1 mg/kg, after 30 mins, read-out: Cmax psilocin): ~0.083 µg/mL
Cmax ([1]; subcutaneous, 10 mg/kg, psilocybin 10 mg/kg, after 30 mins, read-out: Cmax psilocin): ~1.11 µg/mL
concentration at 0.25 h [1, 3]: 0.00376 µg/mL
concentration at 0.5 h [1, 3]: 0.00568 µg/mL
concentration at 0.75 h [1, 3]: 0.00311 µg/mL
concentration at 1 h [1, 3]: 0.00591 µg/mL
concentration at 2 h [1, 3]: 0.00223 µg/mL
concentration at 4 h [1, 3]: 0.00049 µg/mL
concentration at 6 h [1, 3]: 0.000136 µg/mL
concentration at 0.25 h [1, 4]: 0.00935 µg/mL
concentration at 0.5 h [1, 4]: 0.0123 µg/mL
concentration at 0.75 h [1, 4]: 0.00773 µg/mL
concentration at 1 h [1, 4]: 0.0057 µg/mL
concentration at 2 h [1, 4]: 0.00278 µg/mL
concentration at 4 h [1, 4]: 0.000535 µg/mL
concentration at 6 h [1, 4]: 0.000215 µg/mL
concentration at 0.25 h [1, 5]: 0.0745 µg/mL
concentration at 0.5 h [1, 5]: 0.0766 µg/mL
concentration at 0.75 h [1, 5]: 0.0703 µg/mL
concentration at 1 h [1, 5]: 0.0699 µg/mL
concentration at 2 h [1, 5]: 0.0297 µg/mL
concentration at 4 h [1, 5]: 0.0055 µg/mL
concentration at 6 h [1, 5]: 0.00134 µg/mL
concentration at 0.25 h [1, 6]: 0.704 µg/mL
concentration at 0.5 h [1, 6]: 0.898 µg/mL
concentration at 0.75 h [1, 6]: 1.08 µg/mL
concentration at 1 h [1, 6]: 1.07 µg/mL
concentration at 2 h [1, 6]: 0.713 µg/mL
concentration at 4 h [1, 6]: 0.269 µg/mL
concentration at 6 h [1, 6]: 0.132 µg/mL
Tmax [1, 7]: 36 min
AUC(0-inf) [1, 7]: 0.0103 µg·h/mL
AUC(0-t) [1, 7]: 0.0101 µg·h/mL
half-life [1, 7]: 60 min
MRT inf [1, 7]: 104 min
Tmax [1, 8]: 32.2 min
AUC(0-inf) [1, 8]: 0.0157 µg·h/mL
AUC(0-t) [1, 8]: 0.0125 µg·h/mL
half-life [1, 8]: 55.1 min
MRT inf [1, 8]: 85.2 min
Tmax [1, 9]: 34.3 min
AUC(0-inf) [1, 9]: 0.143 µg·h/mL
AUC(0-t) [1, 9]: 0.117 µg·h/mL
half-life [1, 9]: 52.7 min
MRT inf [1, 9]: 91.8 min
Tmax [1, 10]: 42.8 min
AUC(0-inf) [1, 10]: 3.38 µg·h/mL
AUC(0-t) [1, 10]: 2.28 µg·h/mL
half-life [1, 10]: 99 min
MRT inf [1, 10]: 160 min
Plasma [psilocin] ([2]; Regimen 4, mini-pump chronic, improvement in attention in 10 s ITI 5-choice test): ~10 ng/mL
actual plasma concentration of psilocin ([2]; psilocybin minipump 5 mg/kg/day, over the 12 day study period, rats): 9.3 ± 1.3 ng/mL
Psilocin blood levels ([2]; psilocybin minipump, days 4-12, rats): 8 to 10 ng/mL
